Laboratory results from US20250213561A1, “SELECTIVE HYPOTHALAMUS PERMEABLE HDAC6 INHIBITORS FOR TREATMENT OF LEPTIN-RESISTANT OBESITY” (The Children’s Medical Center Corporation, priority 2022, published 2025).
“Also recorded” adds a separate entry of the source.

Columns and labels:
HDAC6 [1] = molecular target: HDAC6 (Mus musculus (Mouse), UniProt Q9Z2V5); assay: Ac-tubulin immunoblotting of tissues (HDAC6 inhibition in hypothalamus and brain regions); type: in vivo, mice; details: for HDAC6 inhibition in other brain regions: cerebrum, frontal lobe, temporal lobe, brainstem; for HDAC6 inhibition in the hypothalamus: mouse, in vivo
DIO mice [2] = assay: Chronic treatment of DIO mice (body weight, food intake, DEXA, glucose homeostasis); type: in vivo; details: for body weight: 3 weeks i.p., ricolinostat 50 mg/kg, bavarostat 10 mg/kg, citarinostat 25 mg/kg; for food intake: 3 weeks treatment
Experimental: DIO mice were treated with ACY775 (10 mg/kg/day, i.p.) for 3 weeks. Daily body weight (g) of DIO mice treated with vehicle (n=17) or ACY775 (n=17) during 3 weeks of treatment was determined. Daily food intake (g) during 3 weeks of vehicle or ACY775 treatment was assessed. 24 hours' food intake per mouse during the first week of vehicle or ACY775 treatment was determined. Serum leptin (ng/ml) levels after 3 weeks of vehicle (n=24) or ACY775 (n=24) treatment was assessed. Lean mass (g), fat mass (g) and fat percentage (%) after 3 weeks of vehicle (n=17) or ACY775 (n=17) treatment measured by Dual-energy X-ray absorptiometry (DEXA) scan. DEXA scans were performed in two different cohorts. Glucose tolerance test (GTT) after 1 week of vehicle (n=33) or ACY775 (n=26) treated DIO mice was assessed. Area of curve (AOC) analysis for GTT was performed. Blood glucose (mg/dl) levels after 1 week of vehicle (n=17) or ACY775 (n=16) were assessed in treated DIO mice. Insulin tolerance test (ITT) was performed after 2 weeks of vehicle (n=31) or ACY775 (n=21) treatment of DIO mice. Serum insulin (ng/ml) levels were measured after 3 weeks of vehicle (n=22) or ACY775 (n=21) in treated DIO mice. A homeostatic model assessment of insulin resistance (HOMA-IR) was analyzed after 3 weeks of vehicle (n=14) or ACY775 (n=13) treated DIO mice.
Food intake was analyzed hourly until 3:00 am. […] DEXA scans were performed in two different cohorts.
DIO mice then were treated with ricolinostat (50 mg/kg, i.p.) for 3 weeks. Daily body weight (g), daily food intake (g), serum leptin (ng/ml) levels after 3 weeks of vehicle (n-8) or ricolinostat (n=8) treatment, lean mass (g); fat mass and fat percentage (%) after 3 weeks of vehicle (n=16) or ricolinostat (n=17) treatment measured by DEXA scan were determined.
Blood glucose (mg/dl) levels were measured after 1 week of vehicle (n=16) or ricolinostat (n=16) treated DIO mice. GTT after 1 week of vehicle (n=17) or ricolinostat (n=16) treatment of DIO mice was assessed. AOC analysis for GTT was performed. ITT after 2 weeks of vehicle (n=17) or ricolinostat (n=16) treated DIO mice was measured. Serum insulin (ng/ml) levels after 3 weeks of vehicle (n=8) or ricolinostat (n=8) treatment were measured in DIO mice. Liver sections from 3 weeks of vehicle or ricolinostat treated DIO mice were stained by H&E.
DIO mice then were treated with bavarostat (10 mg/kg, i.p.) for 3 weeks and daily body weight (g) of DIO mice treated with Veh (n=9) or bavarostat (n=9) measured during the three weeks of treatment period. Daily food intake (g) during 3 weeks of Veh or bavarostat treatment was also measured.
ACY1083 was administered to DIO mice as described in Example 3.

[3] = system: ACY775-responsive DMH neurons; assay: Chemogenetic (hM3Dq) activation of ACY775-responsive DMH neurons; type: in vivo; details: ACY775-induced hM3Dq TRAP2 DIO mice
Experimental: Next, the ACY775-responsive DMH neurons were chemogenically activated to investigate whether activation of these neurons would be sufficient to reduce the food intake and the bodyweight. Adeno-associated virus (AAV) carrying Cre-dependent hM3Dq-DREADD fused to mCherry transgene (AAV-DIO-hM3Dq-mCherry) was injected bilaterally into the DMH of TRAP2 DIO mice. Four weeks after injections, a single dose of ACY775 (10 mg/kg, i.p.) or vehicle was injected to induce c-fos expression. Subsequently, 4-OHT injection was performed after 5 h to activate c-fos driven Cre in the fasted DIO mice. The mCherry signal was expressed only in ACY775-treated TRAP2 DIO mice and was absent in vehicle-treated TRAP2 DIO mice.
Next, both AAV-DIO-hM3Dq-mCherry- and ACY775-injected, and vehicle-treated TRAP2 DIO mice with saline were treated for 3 days and with clozapine N-oxide (CNO) for 4 days. […] The blood glucose levels at the end of saline and CNO treatment was also measured. […] Blood glucose lowering effect of CNO was absent compared in Veh-induced TRAP2 DIO mice and in all the saline-treated mice.

[4] = in vivo; cited from earlier work
HDAC6-KO DIO mice = assay: Chronic treatment of DIO WT versus HDAC6 KO mice; type: in vivo; details: DIO mice, 3 weeks; ACY775 10, ACY738 50, Tubastatin A 25 mg/kg/day i.p.
[5] = Brain/plasma ratio and brain or hypothalamus penetration; details: in vivo
p-STAT3^Tyr705 = assay: Leptin-stimulated hypothalamic STAT3 Tyr705 phosphorylation in DIO mice; type: in vivo; details: 45 minutes after leptin 1 mg/kg i.p.
Experimental: DIO mice were pretreated with ACY775 (10 mg/kg/day, i.p.) or vehicle for 3 days, which was followed by a last injection of ACY775 (or vehicle) in the morning of fourth day. 6 hours later mice were injected with saline or leptin (1 mg/kg, i.p.) and hypothalamus were extracted after 45 minutes following the leptin injection. Representative immunoblots for STAT3^Tyr705 phosphorylation and total STAT3 from the hypothalamus. Quantification of the ratio of p-STAT3^Tyr705 to total-STAT3 signal in the immunoblots. The results were reproduced in three independent experiments. The results were analyzed hourly.
DIO mice were pretreated with ACY775 (10 mg/kg/day, i.p.) or vehicle for 3 days, which was followed by a last injection of ACY775 (or vehicle) in the morning of fourth day. 6 hours later mice were injected with saline or leptin (1 mg/kg, i.p.) and the hypothalamus were extracted after 45 minutes following the leptin injection.
6 hours later mice were injected with saline or leptin (1 mg/kg, i.p.) and hypothalamus were extracted after 45 minutes following the leptin injection. Immunoblots for STAT3^Tyr705 phosphorylation and total STAT3 from the hypothalamus were made to quantify the ratio of p-STAT3^Tyr705 to total-STAT3 signal in the immunoblots. The results were reproduced in two independent experiments.
DIO mice were pretreated with ricolinostat (50 mg/kg/day, i.p.) or vehicle 3 days, which was followed by a last injection of ricolinostat (or vehicle) in the morning of fourth day. 6 hours later mice were injected with saline or leptin (1 mg/kg, i.p.) and the hypothalamus were extracted after 45 minutes following the leptin injection. Immunoblots were performed for STAT3^Tyr705 phosphorylation and total STAT3 from the hypothalamus. The ratio of p-STAT3^Tyr705 to total STAT3 signal in the immunoblots was quantified.

HDAC6 [6] = assay: Ac-tubulin immunoblotting in HEK293 cells; type: cell-based
DIO mice [7] = assay: Acute leptin co-treatment in DIO mice (body weight, food intake 15 h); type: in vivo; details: for body weight, agent alone: ACY775 10 mg/kg, ricolinostat 25 mg/kg
Experimental: DIO mice were pretreated with ACY775 (10 mg/kg/day, i.p.) or vehicle for 3 days, which was followed by co-treatment with ACY775 (or vehicle) and leptin (1 mg/kg, i.p.) (or saline) (n=9 for each group), % change in body weight 15 h after leptin treatment, food intake (g) during the 15 h period after leptin treatment. The results in were reproduced in two independent experiments.
Diet induced obese (DIO) mice were pretreated with ACY775 (10 mg/kg/day, i.p.) or vehicle for 3 days, which was followed by co-treatment with ACY775 (or vehicle) and leptin (1 mg/kg, i.p.) (or saline) (n=9 for each group). Mice were evaluated for % change in body weight 15 h after leptin treatment, and food intake (g) during the 15 h period after leptin treatment.
DIO mice were pretreated with ricolinostat (25 mg/kg/day, i.p.) or vehicle for 3 days, which was followed by co-treatment with ricolinostat (or vehicle) and leptin (1 mg/kg, i.p.) (or saline) (n=32 for each group). Change in body weight 15 h after leptin treatment, and food intake (g) during the 15 h period after leptin treatment were determined. The results were reproduced in two independent experiments.

Sequence of HDAC6 (Mus musculus (Mouse), UniProt Q9Z2V5) (Q9Z2V5 whole entry): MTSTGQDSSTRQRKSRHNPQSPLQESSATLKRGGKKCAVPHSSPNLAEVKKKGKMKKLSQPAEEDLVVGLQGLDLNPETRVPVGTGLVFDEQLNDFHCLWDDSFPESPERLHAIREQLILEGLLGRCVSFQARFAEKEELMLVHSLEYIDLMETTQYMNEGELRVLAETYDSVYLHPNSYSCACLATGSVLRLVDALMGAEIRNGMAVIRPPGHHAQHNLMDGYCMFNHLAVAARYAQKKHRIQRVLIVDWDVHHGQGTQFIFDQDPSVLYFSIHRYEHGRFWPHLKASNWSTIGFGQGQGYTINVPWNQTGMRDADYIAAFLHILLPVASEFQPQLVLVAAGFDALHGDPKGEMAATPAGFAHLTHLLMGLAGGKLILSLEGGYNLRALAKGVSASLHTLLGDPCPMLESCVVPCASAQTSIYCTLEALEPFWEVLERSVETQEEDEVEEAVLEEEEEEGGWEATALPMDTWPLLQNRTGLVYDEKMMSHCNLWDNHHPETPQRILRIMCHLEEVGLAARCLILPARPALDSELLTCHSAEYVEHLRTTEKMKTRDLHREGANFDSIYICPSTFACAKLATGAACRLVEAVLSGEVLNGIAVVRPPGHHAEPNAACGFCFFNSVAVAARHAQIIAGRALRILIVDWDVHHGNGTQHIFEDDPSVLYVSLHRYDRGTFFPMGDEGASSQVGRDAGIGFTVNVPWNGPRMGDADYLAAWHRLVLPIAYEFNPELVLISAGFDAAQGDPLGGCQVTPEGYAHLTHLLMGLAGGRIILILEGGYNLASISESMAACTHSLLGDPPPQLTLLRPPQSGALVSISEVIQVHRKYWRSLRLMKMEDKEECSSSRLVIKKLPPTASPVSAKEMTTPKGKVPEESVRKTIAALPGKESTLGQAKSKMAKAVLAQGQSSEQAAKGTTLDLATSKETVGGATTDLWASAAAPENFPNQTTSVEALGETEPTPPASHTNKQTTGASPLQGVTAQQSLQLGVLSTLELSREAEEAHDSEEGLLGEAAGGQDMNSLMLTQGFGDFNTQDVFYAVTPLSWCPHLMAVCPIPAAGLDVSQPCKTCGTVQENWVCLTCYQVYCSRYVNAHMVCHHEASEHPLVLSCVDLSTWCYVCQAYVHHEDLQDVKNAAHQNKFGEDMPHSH

Molecule | HDAC6 inhibition in other brain regions (HDAC6 [1]) | body weight (DIO mice [2]; DIO mice) | brain penetrance / BBB permeability [4] | penetrance into the hypothalamus [5] | food intake (DIO mice [2]; DIO mice) | leptin-stimulated hypothalamic p-STAT3^Tyr705 (p-STAT3^Tyr705) | body weight, agent alone (DIO mice [7]; 15 h, leptin 1 mg/kg i.p.) | food intake, agent alone (DIO mice [7]; 15 h period) | other results
CC1CCC(C(C)(C2CCC(C)CC2)C2CCC(C(C)C(C)CCCCC(C)C(C)C)CC2)CC1 (stereo not drawn) [ACY257] | does not inhibit HDAC6 in other brain regions | as effective as ACY775 in reducing body weight |  |  |  |  |  |  | 
C[N+]1([O-])CCN(C2=Nc3cc(Cl)ccc3Nc3ccccc32)CC1 [CNO, clozapine N-oxide] |  |  |  |  |  |  |  |  | blood glucose levels [3]: significantly decreased blood glucose levels; bodyweight and food intake ([3]; CNO 4 days): significant reduction in bodyweight and food intake
CN(Cc1ccc(C(=O)NO)cc1F)CC12CC3CC(CC(C3)C1)C2 [bavarostat, 4-(((((3r,5r,7r)-adamantan-1-yl)methyl)(methyl)amino)methyl)-3-fluoro-N-hydroxybenzamide] |  | statistically significantly effective in reducing food intake and body weight | high brain penetrance | high penetrance of the hypothalamus | Appetite was initially suppressed but then rose over time |  |  |  | body weight, WT versus HDAC6 KO (HDAC6-KO DIO mice): treatment of wild type mice but not HDAC6 Knockout animals with bavarostat caused weight loss; also recorded: equivalent to vehicle in HDAC-6 KO mice; food intake and total body fat mass (summary) (DIO mice [2]; high fat diet induced mice): significant reduction of food intake and total body fat mass
O=C(CCCCCCNC(=O)c1cnc(N(c2ccccc2)c2ccccc2Cl)nc1)NO [citarinostat] | inhibits HDAC6 in other brain regions | not effective in reducing body weight | good brain penetrance |  |  |  |  |  | HDAC6 inhibition in the hypothalamus (HDAC6 [1]): does not show HDAC6 inhibition in the AGP neurons in the hypothalamus; HDAC6 inhibition in the hypothalamus (HDAC6 [1]; listed as Citarinostat): but not in the hypothalamus
O=C(CCCCCCNC(=O)c1cnc(N(c2ccccc2)c2ccccc2)nc1)NO [ricolinostat] |  | minimal decrease in bodyweight for the first couple of days without creating any meaningful or significant decreases; also recorded: does not reduce body weight | poor BBB permeability | neither of which have high penetrance into the hypothalamus | reduced transitionally during the first 2-3 days of treatment but then rebounded | did not significantly increase STAT3^Tyr705 phosphorylation | did not decrease the bodyweight | had no effect on the food intake | brain/plasma ratio [4]: < 0.01; tubulin acetylation (HDAC6 inhibitor activity in cells) (HDAC6 [6]): confirmation of Ricolinstat's HDAC6 inhibitory activity; insulin tolerance test (ITT) (DIO mice [2]; DIO mice): did not improves; hepatic steatosis (H&E liver) (DIO mice [2]; DIO mice, 3 weeks): no decrease in the hepatic steatosis; glucose tolerance test (GTT) (DIO mice [2]; DIO mice, after 1 week): did not improves glucose tolerance; serum insulin levels (DIO mice [2]; DIO mice, after 3 weeks): did not reduce insulin levels; body weight, leptin after pre-treatment with inhibitor (DIO mice [7]; 3 days pre-treatment, leptin 1 mg/kg i.p., 15 h): did not reduce the body weight; food intake, leptin together with inhibitor (DIO mice [7]; leptin 1 mg/kg i.p., 15 h period): had no effect on the food intake
leptin: peptide hormone that serves as the afferent signal in a negative feedback loop regulating food intake and body weight |  |  |  |  |  | did not significantly increase STAT3^Tyr705 phosphorylation | did not significantly alter their bodyweight; also recorded: did not change their bodyweight | did not significantly change the food intake | 
